The results in this text go back to PMC9256790 (Molecular cancer therapeutics, 2022).

Data set [1] concerns orthotopic MDA-MB-231 xenografts. Briefly: Orthotopic MDA-MB-231 xenograft in comparison with CA4P. It is filed as in vivo, mice.
The next data set deals with cHCI-2. Briefly: Cell proliferation. Format: cell-based, Human. To be noted: for proliferation of cHCI-2 cells: 10 nM, 5 days of treatment.
Another data set deals with cHCI-10. Briefly: Cell proliferation. To be noted: for proliferation of cHCI-10 cells: 10 nM, 5 days of treatment. It is filed as cell-based, Human.
Data set [2] relates to MDA-MB-231 or MDA-MB-468 cells. Briefly: Colony formation assay. Format: cell-based, Human. To be noted: 1 to 4 nM; both TNBC cell lines.
The test system of data set [3] is MDA-MB-231 cells. Briefly: Immunofluorescence staining of microtubules. It is filed as cell-based, Human. To be noted: 24 h.
In data set [4] the test system is MDA-MB-231 and MDA-MB-468 cells. Briefly: Cell cycle analysis. To be noted: 10 nM; 24 h. Format: cell-based, Human.
For data set [5], the system named is MDA-MB-231 cells. Briefly: Wound healing. Format: cell-based, Human. To be noted: 4 nM, 24 h.
The test system of another data set is MDA-MB-468/TxR. Briefly: Cell proliferation. To be noted: Homo sapiens, MDA-MB-468, read-out: Mean IC50 ± SEM. It is filed as cell-based.
The next data set deals with MDA-MB-231/TxR. Briefly: Cell proliferation. Format: cell-based. To be noted: Homo sapiens, read-out: Mean IC50 ± SEM.
A further data set has as its system Mia PaCa-2/ColxR. Briefly: Cell proliferation. It is filed as cell-based. To be noted: Homo sapiens, MIA PaCa-2, read-out: Mean IC50 ± SEM.
The test system of the next data set is Mia PaCa-2. Briefly: Cell proliferation. Format: cell-based. To be noted: Homo sapiens, MIA PaCa-2, read-out: Mean IC50 ± SEM.
The next data set relates to MDA-MB-468. Briefly: Cell proliferation. Format: cell-based. To be noted: Homo sapiens, MDA-MB-468, read-out: Mean IC50 ± SEM.
Setting [6] is: Homo sapiens, 120 h, read-out: Mean IC50 ± SEM.

With `COc1ccc(/C=C\c2cc(OC)c(OC)c(OC)c2)cc1OP(=O)(O)O` [CA4P, fosbretabulin], the “average tumor volume vs vehicle” value in data set [1] (28 mg/kg (equivalent to 20 mg/kg CA4) IP 5 times/week) was “significantly reduced”. Moreover, in data set [1] (28 mg/kg IP 5 times/week), the body weight entry is “no significant loss in body weight”.
On to `COc1cc2c(c(OC)c1OC)-c1ccc(OC)c(=O)cc1[C@@H](NC(C)=O)CC2` [Colchicine], for which the “proliferation of cHCI-2 cells” value in the data set with cHCI-2 is reported as “limited effects”. Moreover, the “proliferation of cHCI-10 cells” value in the data set on cHCI-10 is listed as “limited effects”. For the same compound, the colony formation result in data set [2] was “no effect”. Moreover, the microtubule structure entry with MDA-MB-231 cells [3] (2.5 nM) is “similarly organized and intact microtubule structures as untreated cells”; with MDA-MB-231 cells [3] (5 nM, interphase) it was “disseminated and depolymerized microtubule arrangement”. The cell cycle distribution entry in data set [4] was “little effect on cell cycle progression”. In addition, the wound closure entry with MDA-MB-231 cells [5] is given as “closed similar to untreated control cells”.
Consider `CC(=O)O[C@H]1C(=O)[C@@]2(C)[C@H]([C@H](OC(=O)c3ccccc3)[C@]3(O)C[C@H](OC(=O)[C@H](O)[C@@H](NC(=O)c4ccccc4)c4ccccc4)C(C)=C1C3(C)C)[C@]1(OC(C)=O)CO[C@@H]1C[C@@H]2O` [Paclitaxel], for which, in the data set on cHCI-2, the “proliferation of cHCI-2 cells” value is “reduced the proliferation”. Moreover, the IC50 (in general, the concentration that inhibits the measured activity by half) with cHCI-2 (setting [6]) turned out to be 12.7 ± 5.8 nM; with MDA-MB-468/TxR, 152 ± 23.8 nM; in the data set on cHCI-10 (setting [6]) it was 43.6 ± 8.2 nM; with MDA-MB-231/TxR it was 112 ± 37.8 nM; in the data set with Mia PaCa-2/ColxR it was 10.6 ± 1.1 nM; in the data set on Mia PaCa-2, 5.5 ± 0.6 nM. Besides, the IC50 in the data set on MDA-MB-468 was 2 ± 0.2 nM. In addition, the “proliferation of cHCI-10 cells” value in the data set on cHCI-10 was “no activity”. For the same compound, the colony formation result in [2] is given as “robustly inhibited colony formation”. The microtubule structure result in the data set with MDA-MB-231 cells [3] (2.5 nM or 5 nM, interphase and mitotic phase) is “condensed microtubules”. For the same compound, the cell cycle distribution entry in data set [4] is “arrested the cells into the M phase and the subG1 phase”.
